One assay deals with D2 receptor (Homo sapiens (Human), UniProt P14416). Nature of the assay: Radioligand binding assay ([3H]-spiperone) on membranes of HEK293 EBNA cells expressing human D2 receptor. The conditions noted are these: human receptor in HEK293 EBNA cells; 0.7 nM [3H]-spiperone.
Another assay addresses D3 receptor (Homo sapiens (Human), UniProt P35462). Nature of the assay: Radioligand binding assay ([3H]-spiperone) on membranes of HEK293 EBNA cells expressing human D3 receptor. Particulars: read-out: D3 Ki; human receptor in HEK293 EBNA cells; 0.5 nM [3H]-spiperone.
In the next assay the target is 5-HT2A receptor (Homo sapiens (Human), UniProt P28223). The assay can be described thus: Radioligand binding assay ([3H]-ketanserin) on membranes of HEK293 EBNA cells expressing human 5-HT2A receptor. Particulars: read-out: 5HT2A Ki.
[1] abbreviates: human receptor in HEK293 EBNA cells, 1.1 nM [3H]-ketanserin.

Like-named read-outs stand apart in the source and are kept apart here.

Sequence of D3 receptor (P35462 whole entry): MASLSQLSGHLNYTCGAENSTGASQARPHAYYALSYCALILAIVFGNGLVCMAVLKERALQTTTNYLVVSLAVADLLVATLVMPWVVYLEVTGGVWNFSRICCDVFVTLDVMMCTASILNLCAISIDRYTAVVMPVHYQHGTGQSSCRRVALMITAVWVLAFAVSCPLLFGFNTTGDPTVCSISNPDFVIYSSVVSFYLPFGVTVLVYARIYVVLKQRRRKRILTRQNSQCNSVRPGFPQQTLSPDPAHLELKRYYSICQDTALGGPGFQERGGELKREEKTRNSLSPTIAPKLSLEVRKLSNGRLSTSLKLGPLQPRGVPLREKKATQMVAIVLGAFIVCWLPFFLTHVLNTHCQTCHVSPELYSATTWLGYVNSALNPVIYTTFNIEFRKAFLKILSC
Sequence of D2 receptor (P14416 whole entry): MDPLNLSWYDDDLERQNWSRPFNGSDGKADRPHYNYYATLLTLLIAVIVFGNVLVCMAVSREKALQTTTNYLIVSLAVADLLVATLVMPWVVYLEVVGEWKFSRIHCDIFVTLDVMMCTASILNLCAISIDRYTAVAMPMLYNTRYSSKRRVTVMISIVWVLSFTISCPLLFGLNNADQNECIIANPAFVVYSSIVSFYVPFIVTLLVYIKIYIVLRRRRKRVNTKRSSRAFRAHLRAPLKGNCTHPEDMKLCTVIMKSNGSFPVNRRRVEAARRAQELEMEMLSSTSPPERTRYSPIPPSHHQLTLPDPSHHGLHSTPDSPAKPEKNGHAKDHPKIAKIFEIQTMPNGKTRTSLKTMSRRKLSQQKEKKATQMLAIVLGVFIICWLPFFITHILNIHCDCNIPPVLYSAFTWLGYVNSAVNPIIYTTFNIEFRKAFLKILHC
Protocol for 5-HT2A receptor: (§1) HEK293 EBNA cells were transiently transfected with expression plasmids encoding for the human D2 or D3 or for the human 5-HT2A receptor, respectively. The cells were harvested 48 h post-transfection, washed three times with cold PBS and stored at −80° C. prior to use. The pellet was suspended in cold 50 mM Tris-HCl buffer containing 10 mM EDTA (pH 7.4) and was homogenized with a Polytron (Kinematica AG, Basel, Switzerland) for 20-30 sec at 12.000 rpm. After centrifugation at 48.000×g for 30 min at 4° C., the pellet was resuspended in cold 10 mM Tris-HCl buffer containing 0.1 mM EDTA (pH 7.4), homogenized, and centrifuged as above. This pellet was further resuspended in a smaller volume of ice cold 10 mM Tris-HCl buffer containing 0.1 mM EDTA (pH 7.4) and homogenized with a Polytron for 20-30 sec at 12.000 rpm. The protein content of this homogenate was determined with the Bio-Rad (Bradford) Protein Assay (Biorad Laboratories GmbH, München, Germany) according to the instructions of the manufacturer using gamma globulin as the standard. This homogenate was stored at −80° C. in aliquots and thawed immediately prior to use.
(§2) Aliquots of membrane preparations were thawed at RT, resuspended in assay buffer (D2, D3: 50 mM Tris-HCl, 120 mM NaCl, 5 mM MgCl2, 1 mM EDTA, 5 mM KCl, 1.5 mM CaCl2, pH=7.4; 5-HT2A: 50 mM Tris-HCl, 10 mM MgCl2, 1 mM EGTA, pH=7.4), homogenized with a Polytron for 20-30 sec at 12.000 rpm and adjusted to a final concentration of approximately 7.5 μg protein/well (D2, D3) and 15 μg protein/well (5-HT2A), respectively.
(§3) The nonspecific binding was determined with equally composed reaction mixtures in the presence of 10 μM unlabelled spiperone. Per well 45 μl of Microscint 40 (Perkin Elmer, Schwerzenbach, Switzerland) was added, plates for sealed, shaken for 20 min and counted for 3 min on a Topcount Microplate Scintillation Counter (Can berra Packard SA, Ziirich, Switzerland) with quenching correction.
(§4) The CPM value for each duplicate of a concentration of competing compound was averaged (y1), then the % specific binding was calculated according to the equation (((y1−non-specific)/(total binding−non-specific))×100). Graphs were plotted with the % specific binding using XLfit, a curve fitting program that iteratively plots the data using Levenberg-Marquardt algorithm. The single site competition analysis equation used was y=A+((B−A)/(1+((x/C)D))), where y is the % specific binding, A is the minimum y, B is the maximum y, C is the IC50, x is the log 10 of the concentration of the competing compound and D is the slope of the curve (the Hill Coefficient). […] The affinity constant (K) was calculated using the Cheng-Prusoff equation Ki=(IC50/1+([L]/Kd), where [L] is the concentration of radioligand and Kd is the dissociation constant of the radioligand at the receptor as determined by the saturation isotherm.
Protocol for D2 receptor: as §1, §2, §3, §4
Protocol for D3 receptor: as §1, §2, §3, §4

As usually defined, the Ki is a measure of affinity in units of concentration, obtained from inhibition or displacement. For the molecule `O=C(N[C@H]1CC[C@H](CCN2CCC(c3cccc4c3OCO4)CC2)CC1)C1CCS(=O)(=O)C1` (stereo partly drawn) [Example 52, 1,1-Dioxo-tetrahydro-thiophene-3-carboxylic acid-trans-{4-[2-(4-benzo[1,3]dioxol-4-yl-piperidin-1-yl)-ethyl]-cyclohexyl}-amide], the results for the Ki on D2 receptor, at D3 receptor and on 5-HT2A receptor were 130 nM, 16.3 nM and 4.57 nM, respectively.

As to `O=C(CC1CCOCC1)N[C@H]1CC[C@H](CCN2CCC(c3cccc4c3OCO4)CC2)CC1` [Example 53, Trans-N-{4-[2-(4-Benzo[1,3]dioxol-4-yl-piperidin-1-yl)-ethyl]-cyclohexyl}-2-(tetrahydro-pyran-4-yl)-acetamide], the results for the Ki on D2 receptor, on D3 receptor and on 5-HT2A receptor (setting [1]) were 352 nM, 8.81 nM and 29.6 nM, respectively.

`O=C(N[C@H]1CC[C@H](CCN2CCC(c3cccc4c3OCO4)CC2)CC1)C1CCC1` [Example 54, Cyclobutanecarboxylic acid-trans-{4-[2-(4-benzo[1,3]dioxol-4-yl-piperidin-1-yl)-ethyl]-cyclohexyl}-amide]: the Ki at D2 receptor turned out to be 100 nM; on D3 receptor, 8 nM; at 5-HT2A receptor it was 16.9 nM.

Take `CS(=O)(=O)CC(=O)N[C@H]1CC[C@H](CCN2CCC(c3cccc4c3OCO4)CC2)CC1` [Example 55, Trans-N-{4-[2-(4-Benzo[1,3]dioxol-4-yl-piperidin-1-yl)-ethyl]cyclohexyl}-2-methanesulfonyl-acetamide]: the figures for the Ki on D2 receptor, at D3 receptor and at 5-HT2A receptor (setting [1]) were 165 nM, 4.63 nM and 27 nM, respectively.

With `O=C(N[C@H]1CC[C@H](CCN2CCC(c3cccc4c3OCO4)CC2)CC1)c1ccc(N2CCOCC2)cc1` [Example 56, Trans-N-{-4-[2-(4-Benzo[1,3]dioxol-4-yl-piperidin-1-yl)-ethyl]-cyclohexyl}-4-morpholin-4-yl-benzamide], the Ki at D2 receptor was determined as 593 nM; on D3 receptor, 10.1 nM; on 5-HT2A receptor (setting [1]), 18.5 nM.

As to `O=C(N[C@H]1CC[C@H](CCN2CCC(c3cccc4c3OCO4)CC2)CC1)c1ccnc2ccccc12` [Example 57, Quinoline-4-carboxylic acid-trans-N-{4-[2-(4-benzo[1,3]dioxol-4-yl-piperidin-1-yl)-ethyl]-cyclohexyl}-amide], the values for the Ki on D2 receptor, at D3 receptor and on 5-HT2A receptor (setting [1]) were 370 nM, 6.16 nM and 23.1 nM, respectively.

As to `O=C(N[C@H]1CC[C@H](CCN2CCC(c3cccc4c3OCO4)CC2)CC1)c1ccc2c(c1)OCCO2` [Example 58, 2,3-Dihydro-benzo[1,4]dioxine-6-carboxylic acid-trans-N-{4-[2-(4-benzo[1,3]dioxol-4-yl-piperidin-1-yl)-ethyl]-cyclohexyl}-amide], the Ki came to 345 nM at D2 receptor, 3.7 nM at D3 receptor and 20.1 nM at 5-HT2A receptor.

Consider `O=C(Cc1ccc2c(c1)OCO2)N[C@H]1CC[C@H](CCN2CCC(c3cccc4c3OCO4)CC2)CC1` [Example 59, 2-Benzo[1,3]dioxol-5-yl-trans-N-{4-[2-(4-benzo[1,3]dioxol-4-yl-piperidin-1-yl)-ethyl]-cyclohexyl}-acetamide], for which the results for the inhibition constant Ki at D2 receptor, on D3 receptor and on 5-HT2A receptor (setting [1]) were 325 nM, 4.02 nM and 36.7 nM, respectively.

For the molecule `O=C(N[C@H]1CC[C@H](CCN2CCC(c3cccc4c3OCO4)CC2)CC1)C1COc2ccccc2C1` (stereo partly drawn) [Example 60, Chroman-3-carboxylic acid-trans-N-{4-[2-(4-benzo[1,3]dioxol-4-yl-piperidin-1-yl)-ethyl]-cyclohexyl}-amide], the values for the inhibition constant (Ki) on D2 receptor, on D3 receptor and at 5-HT2A receptor (setting [1]) were 1050 nM, 6.73 nM and 21.8 nM, respectively.

With `CN1CCC(C(=O)N[C@H]2CC[C@H](CCN3CCC(c4cccc5c4OCO5)CC3)CC2)CC1` [Example 61, 1-Methyl-piperidine-4-carboxylic acid-trans-N-{4-[2-(4-benzo[1,3]dioxol-4-yl-piperidin-1-yl)-ethyl]-cyclohexyl}-amide], the Ki was found to be 150 nM on D2 receptor, 35.1 nM on D3 receptor and 5.91 nM on 5-HT2A receptor (setting [1]).

On to `CC1(C(=O)N[C@H]2CC[C@H](CCN3CCC(c4cccc5c4OCO5)CC3)CC2)COC1` [Example 62, 3-Methyl-oxetane-3-carboxylic acid-trans-N-{4-[2-(4-benzo[1,3]dioxol-4-yl-piperidin-1-yl)-ethyl]-cyclohexyl}-amide], for which the Ki on D2 receptor amounted to 225 nM; at D3 receptor, 39 nM; at 5-HT2A receptor (setting [1]) it was 22.1 nM.

In the case of `CO[C@H]1CC[C@H](CC(=O)N[C@H]2CC[C@H](CCN3CCC(c4cccc5c4OCO5)CC3)CC2)CC1` [Example 63, Trans-N-{4-[2-(4-Benzo[1,3]dioxol-4-yl-piperidin-1-yl)-ethyl]-cyclohexyl}-2-(4-methoxy-cyclohexyl)-acetamide], the figures for the Ki at D2 receptor, at D3 receptor and on 5-HT2A receptor (setting [1]) were 361 nM, 8.13 nM and 34.3 nM, respectively.

For `C[C@@H](O)C(=O)N[C@H]1CC[C@H](CCN2CCC(c3cccc4c3OCO4)CC2)CC1` [Example 64, (R)-trans-N-{4-[2-(4-Benzo[1,3]dioxol-4-yl-piperidin-1-yl)-ethyl]-cyclohexyl}-2-hydroxy-propionamide], the Ki came to 268 nM on D2 receptor, 11.1 nM on D3 receptor and 10.7 nM on 5-HT2A receptor (setting [1]).

On to `O=C(CO)N[C@H]1CC[C@H](CCN2CCC(c3cccc4c3OCO4)CC2)CC1` [Example 65, Trans-N-{4-[2-(4-Benzo[1,3]dioxol-4-yl-piperidin-1-yl)-ethyl]-cyclohexyl}-2-hydroxy-acetamide], for which the Ki stood at 298 nM at D2 receptor, 9.09 nM on D3 receptor and 21.4 nM on 5-HT2A receptor (setting [1]).

Turning to `O=C(N[C@H]1CC[C@H](CCN2CCC(c3cccc4c3OCO4)CC2)CC1)C1(O)CCCCC1` [Example 66, 1-Hydroxy-cyclohexanecarboxylic acid-trans-N-{4-[2-(4-benzo[1,3]dioxol-4-yl-piperidin-1-yl)-ethyl]-cyclohexyl}-amide], the Ki turned out to be 219 nM at D2 receptor, 17.5 nM at D3 receptor and 3.93 nM on 5-HT2A receptor.

For the molecule `COC1(C(=O)N[C@H]2CC[C@H](CCN3CCC(c4cccc5c4OCO5)CC3)CC2)CCCCC1` [Example 67, 1-Methoxy-cyclohexanecarboxylic acid-trans-N-{4-[2-(4-benzo[1,3]dioxol-4-yl-piperidin-1-yl)-ethyl]-cyclohexyl}-amide], the Ki at D2 receptor was 196 nM; on D3 receptor, 38.6 nM; at 5-HT2A receptor (setting [1]) it was 11.6 nM.

Take `CN1CCN(CC(=O)N[C@H]2CC[C@H](CCN3CCC(c4cccc5c4OCO5)CC3)CC2)CC1` [Example 68, Trans-N-{4-[2-(4-Benzo[1,3]dioxol-4-yl-piperidin-1-yl)-ethyl]-cyclohexyl}-2-(4-methylpiperazin-1-yl)-acetamide]: the Ki at D2 receptor stood at 104 nM; at D3 receptor it was 19.8 nM; on 5-HT2A receptor (setting [1]) it was 31 nM.

With `CS(=O)(=O)N[C@H]1CC[C@H](CCN2CCC(c3cccc4c3OCO4)CC2)CC1` [Example 69, Trans-N-{4-[2-(4-Benzo[1,3]dioxol-4-yl-piperidin-1-yl)-ethyl]-cyclohexyl}-methanesulfonamide], the Ki on D2 receptor is 414 nM; at D3 receptor, 10.5 nM; at 5-HT2A receptor (setting [1]) it was 31.3 nM.

In the case of `O=S(=O)(N[C@H]1CC[C@H](CCN2CCC(c3cccc4c3OCO4)CC2)CC1)c1ccccc1` [Example 70, Trans-N-{4-[2-(4-Benzo[1,3]dioxol-4-yl-piperidin-1-yl)-ethyl]cyclohexyl}-benzenesulfonamide], the Ki stood at 63.5 nM at D2 receptor, 3.65 nM at D3 receptor and 52.2 nM on 5-HT2A receptor.
